Experimental data: patent EP4491627A1, “SYNTHETIC CA[…] ON CHROMENO[…] AND USE THEREOF” (Consejo Superior De Investigaciones Científicas, priority 2023, dated 2025)

Tested on: primary neuronal cultures
Test: cAMP assay in primary neuronal cultures
Format: cell-based, Sprague Dawley rats
Settings: primary cultures of cortical neurons; Figure 5
Protocol: • Fig. 1. Graphics of the dose-response corresponding to the HTFR (Homogeneous Time Resolved Fluorescence) assays performed with chromenopyrimidines Example 1, Example 2 and Example 3. A) Competition assay snap-CB1; red ligand used at 100 nM; B) Competition assay snap-CB2; red ligand used at 20 nM. • Fig. 2. cAMP (Cyclic adenosine monophosphate) experiments performed with novel chromenopyrimidines (Example 1, Example 2 and Example 3). A) In HEK293 cells transfected with CB1; B) In HEK293 cells transfected with CB2. • Fig. 3. Graphics of the dose-response corresponding to the MAPK (mitogen-activated protein kinase) experiments performed with novel chromenopyrimidines (Example 1, Example 2 and Example 3). A) In HEK293 cells transfected with CB1; B) In HEK293 cells transfected with CB2. • Fig. 4. Graphics of the dose-response corresponding to the β-arrestin2 recruitment assays performed with Example 1, Example 2 and Example 3. A) In HEK293 cells transfected with CB1; B) In HEK293 cells transfected with CB2. • Fig. 5. Graphics of the dose-response corresponding to the cAMP assays performed with Example 1, Example 2 and Example 3 in neurons. • Fig. 6. Graphics of the dose-response of reference cannabinoids ACEA and anandamide in cAMP and MAPK assays in HEK293-CB1 cells. • Fig. 7. […]
In the present invention, cannabinoid affinity was evaluated using Homogeneous Time Resolved Fluorescence (HTFR) binding assays. Cannabinoid activity was assessed using an array of functional assays including cAMP, MAPK and barrestin2 recruitment in CB1 and CB2 transfected HEK293 cells. […]
Two hours before initiating the experiment, HEK-293T cells medium was replaced by serum-starved DMEM medium. […] Readings were performed after 60 min incubation at 25°. Homogeneous time-resolved fluorescence energy transfer (HTRF) measures were performed using the Lance Ultra cAMP kit (PerkinElmer, Waltham, MA, USA). Fluorescence at 665 nm was analysed on a PHERAstar Flagship microplate reader equipped with an HTRF optical module (BMG Lab technologies, Offenburg, Germany). […]

SMILES	cannabinoid agonistic activity in primary neuronal cultures using cAMP assays
CCCCCCC(C)(C)c1cc(O)c2c(c1)OC(C)(C)c1cncnc1-2 [Example 1, 8-(1,1-Dimethylheptyl)-5,5-dimethylchromeno[4,3-d]pyrimidin-10-ol]	cannabinoid agonistic activity
CCCCCCC(C)(C)c1cc(OC)c2c(c1)OC(C)(C)c1cncnc1-2 [Example 2, 8-(1,1-Dimethylheptyl)-10-methoxy-5,5-dimethylchromeno[4,3-d]pyrimidine]	cannabinoid agonistic activity
CCCCCCC(C)(C)c1cc(OCc2ccccc2)c2c(c1)OC(C)(C)c1cncnc1-2 [Example 3, 10-Benzyloxy-8-(1,1-dimethylheptyl)-5,5-dimethylchromeno[4,3-d]pyrimidine]	cannabinoid agonistic activity
